According to patent publication US20220133846A1, “NOVEL ANTIMICROBIAL COMPOUND AND USES THEREOF” (priority 2019, published 2022):
Values after ≈ are worked out from the molar mass of the structure shown. Where two headings read alike, the source gives them in different places.

Key:
S. aureus (ATCC #29213) = format: cell-based
MDR S. aureus (CH-11) = assay: Frequency of resistance (FoR) in vitro; format: cell-based
[1] = test system: Staphylococcus genus clinical strain CH-16 (16S ID n/a); assay: microbe, parasite or virus in culture; format: cell-based; conditions: clinical strain CH-16, drug resistance Y
[2] = test system: Staphylococcus aureus strain NBRC 100910; assay: MIC against clinical isolates (Christiana Hospital); format: cell-based
[3] = test system: Staphylococcus haemolyticus strain JCM 2416; assay: microbe, parasite or virus in culture; conditions: JCM2416

COc1cccc(OC)c1C(=O)N[C@@H]1C(=O)N2[C@@H]1SC(C)(C)[C@@H]2C(=O)O [Methicillin]
Frequency of resistance (FoR) (S. aureus (ATCC #29213); 2X MIC): <3.72 × 10^−10 | Frequency of resistance (FoR) (S. aureus (ATCC #29213); 3X MIC): <3.72 × 10^−10 | Frequency of resistance (FoR) (S. aureus (ATCC #29213); 4X MIC): <3.72 × 10^−10 | Frequency of resistance (FoR) (S. aureus (ATCC #29213); 5X MIC): <3.72 × 10^−10 | Frequency of resistance (FoR) (S. aureus (ATCC #29213); 10X MIC): <3.72 × 10^−10 | Frequency of resistance (FoR) (MDR S. aureus (CH-11); 2X MIC): resistant | Frequency of resistance (FoR) (MDR S. aureus (CH-11); 3X MIC): resistant | Frequency of resistance (FoR) (MDR S. aureus (CH-11); 4X MIC): resistant | Frequency of resistance (FoR) (MDR S. aureus (CH-11); 5X MIC): resistant | Frequency of resistance (FoR) (MDR S. aureus (CH-11); 10X MIC): resistant | MIC [1]: 64 µg/mL (≈ 168 µM) | MIC ([2]; NBRC100910, clinical strain CH-01, drug resistance N): 1 µg/mL (≈ 2.63 µM) | MIC ([2]; NBRC100910, clinical strain CH-02, drug resistance N): 1 µg/mL (≈ 2.63 µM) | MIC ([2]; NBRC100910, clinical strain CH-03, drug resistance N): 1 µg/mL (≈ 2.63 µM) | MIC ([2]; NBRC100910, clinical strain CH-04, drug resistance N): 2 µg/mL (≈ 5.26 µM) | MIC ([2]; NBRC100910, clinical strain CH-05, drug resistance N): 1 µg/mL (≈ 2.63 µM) | MIC ([2]; NBRC100910, clinical strain CH-06, drug resistance N): 1 µg/mL (≈ 2.63 µM) | MIC ([2]; NBRC100910, clinical strain CH-07, drug resistance N): 1 µg/mL (≈ 2.63 µM) | MIC ([2]; NBRC100910, clinical strain CH-08, drug resistance N): 1 µg/mL (≈ 2.63 µM) | MIC ([2]; NBRC100910, clinical strain CH-09, drug resistance N): 8 µg/mL (≈ 21 µM) | MIC ([2]; NBRC100910, clinical strain CH-10, drug resistance N): 1 µg/mL (≈ 2.63 µM) | MIC ([2]; NBRC100910, clinical strain CH-11, drug resistance Y): 32 µg/mL (≈ 84.1 µM) | MIC ([2]; NBRC100910, clinical strain CH-12, drug resistance Y): 16 µg/mL (≈ 42.1 µM) | MIC ([2]; NBRC100910, clinical strain CH-13, drug resistance Y): > 64 µg/mL | MIC ([2]; NBRC100910, clinical strain CH-14, drug resistance Y): > 64 µg/mL | MIC ([2]; NBRC100910, clinical strain CH-15, drug resistance Y): > 64 µg/mL | MIC ([2]; NBRC100910, clinical strain CH-17, drug resistance Y): 16 µg/mL (≈ 42.1 µM) | MIC ([2]; NBRC100910, clinical strain CH-20, drug resistance Y): 4 µg/mL (≈ 10.5 µM) | MIC [3]: 8 µg/mL (≈ 21 µM)
